Values after ≈ are worked out from the molar mass of the structure shown.
Experiment: Solubility assessment of (R)-Trolox in 12 solvents at 40° C.
Type: physicochemical
Conditions: for solubility: organic solvent or mixture, thermodynamic from solid
Description: (R)-Trolox (97.89% ee, chemical purity>99.99% AUC) (100 mg) was weighed out in 12 different vials. 12 different solvents were added (one volume at a time) to the different vials and the mixture was maintained at 40° C. The volume of each solvent required to dissolve 100 mg of (R)-Trolox was recorded and the solubility was subsequently calculated.

SMILES: Cc1c(C)c2c(c(C)c1O)CCC(C)(C(=O)O)O2 (racemic) [(R)-Trolox, 6-hydroxy-2,5,7,8-tetramethylchroman-2-carboxylic acid]
- Solubility (in words) (all solvents except for pure water): highly soluble
- solubility (solvent 2-MeTHF): 524 mg/mL (≈ 2090 mM)
- solubility (solvent 5% water/ACN): 459 mg/mL (≈ 1830 mM)
- solubility (solvent 5% water/EtOH): 854 mg/mL (≈ 3410 mM)
- solubility (solvent 5% water/IPA): 978 mg/mL (≈ 3910 mM)
- solubility (solvent 5% water/MeOH): 1040 mg/mL (≈ 4150 mM)
- solubility (solvent ACN): 195 mg/mL (≈ 779 mM)
- solubility (solvent EtOAc): 209 mg/mL (≈ 835 mM)
- solubility (solvent EtOH): 494 mg/mL (≈ 1970 mM)
- solubility (solvent IPA): 523 mg/mL (≈ 2090 mM)
- solubility (solvent IPAc): 252 mg/mL (≈ 1010 mM)
- solubility (solvent MeOH): 1000 mg/mL (≈ 4010 mM)
- Solubility at 40° C. (solvent water): not soluble
